In US20120294803A1, “CXCR4 ANTAGONISTS FOR IMAGING OF CANCER AND INFLAMMATORY DISORDERS” (EMORY UNIVERSITY, priority 2010, published 2012):
pKd: −log10 of the molar value.

What was measured:
[1] = system: CXCR4-positive lung metastases; experiment: MicroPET/CT imaging in lung metastasis of SCCHN animal model; type: in vivo, mouse; details: 60 mins post-injection
Method: MicroPET/CT scan images of the lungs were performed to determine whether [^18F]M508F can be used to image CXCR4-positive lung metastases in vivo. These images were obtained 60 minutes post-injection of [^18F]M508F.

[2] = system: CXCR4-positive paw edema; experiment: MicroPET/CT imaging in edema animal model; type: in vivo, mice; details: 30 mins post-injection
Method: In vivo biodistribution studies were performed to determine whether [^18F]M508F can be used to image CXCR4-positive inflammation in vivo.

[3] = target: CXCR4 (Homo sapiens, UniProt P61073); experiment: Competition binding assay, metastatic 686LN cells with [18F]M508F and increasing nonradioactive [19F]M508F
Method: To determine whether [^18F]M508F specifically and quantitatively would bind to CXCR4 on the cell surface, we tested this using the metastatic 686LN subclones that are CXCR4-positive in vitro. […] Similarly, a competition assay was used to determine the binding affinity of [^18F]M508F to CXCR4. Metastatic 686LN cells, incubated with a constant amount of [^18F]-M508F and increasing concentrations of nonradioactive [^19F]-M508F for 1 h at ambient temperature, were used in the competition binding assay.

[4] = system: CXCR4-positive orthothopic SCCHN tumors; experiment: MicroPET imaging in orthotopic SCCHN animal model; type: in vivo, mouse; details: 30 mins post-injection
Method: In vivo biodistribution and tumor uptake studies were performed to determine whether [^18F]M508F can be used to image CXCR4-positive tumors in vivo.

[5] = Tissue biodistribution by tissue harvesting and gamma counter in normal mice; type: in vivo, C57Black mice; details: 15, 30, 60, 120 min post-injection
Method: To determine the tissue biodistribution of [^18F]M508F using a gamma counter in regular C57Black mice, we harvested animal organs, including blood, at 15 min, 30 min, 60 min, and 120 min post-injection and measured the uptake of radioactivity in various organs [radioactivity (% injected dose)/g] with n=5 per group.
Results are shown in FIG. 2 as average vales +/−SE.

[6] = system: CXCR4-positive immune cells; experiment: MicroPET/CT imaging of lung inflammation induced by strong-dose radiation; type: in vivo, mouse; details: 20 Gy irradiation, 60 mins post-injection
Method: MicroPET/CT scan images of the lungs were performed to determine whether [^18F]M508F can be used to image lung inflammation induced by the strong-dose radiation therapy in vivo. These images were obtained 60 minutes post-injection of [^18F]M508F.
These images were obtained 60 minutes post-injection of [^18F]M508F.

Sequence of CXCR4 (P61073 whole entry, species assumed): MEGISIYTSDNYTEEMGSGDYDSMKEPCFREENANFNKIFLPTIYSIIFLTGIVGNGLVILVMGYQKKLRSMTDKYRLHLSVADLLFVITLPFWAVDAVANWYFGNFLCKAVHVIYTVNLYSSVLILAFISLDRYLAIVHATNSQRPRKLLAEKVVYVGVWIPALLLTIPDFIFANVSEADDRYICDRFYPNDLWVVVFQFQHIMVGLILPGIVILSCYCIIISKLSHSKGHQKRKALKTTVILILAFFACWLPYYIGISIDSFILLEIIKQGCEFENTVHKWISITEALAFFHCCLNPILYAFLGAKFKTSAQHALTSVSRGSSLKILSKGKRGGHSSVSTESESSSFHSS

binding affinity better than 64Cu-AMD3100 ([3]; 1.85 μM compared with […]): over 50 times
pKd ([3]; metastatic 686LN cells, 1 h at ambient temperature, competition with nonradioactive [19F]-M508F, read-out: binding affinity for CXCR4): 5.73
crossing of the blood-brain-barrier ([4]; PET sagittal image): does not cross the blood-brain-barrier
blood and muscle clearance [5]: fast blood and muscle clearance
clearance pathway [5]: renal clearance pathway
Compound: Fc1cnc([18F])nc1NCc1ccc(CNc2ccnc(NCCN3CCOCC3)n2)cc1 [[^18F]M508F, N4-(4((2-^18-fluoro,5-fluoropyrimidin-4-ylamino)methyl)benzyl)-N2-(2-morpholinoethyl)pyrimidine-2,4-diamine]
uptake of tracer by metastatic SCCHN tumors in lung (PET/CT) [1]: significant uptake
uptake of tracer in paw edema (PET) [2]: significant uptake
tumor uptake of tracer (PET) [4]: significant uptake
accumulation in the liver [5]: anomalous specific accumulation in the liver
uptake of tracer by CXCR4-positive immune cells in lung inflammation (PET/CT) [6]: significant uptake
